Test results: patent publication US20260274892A1, “MACROCYCLIC BROAD SPECTRUM ANTIBIOTICS” (RQx Pharmaceuticals, Inc., priority 2017, published 2026)

Columns and labels:
[1] = system: Methicillin Resistant Staphylococcus aureus strain USA 200; experiment: Minimum inhibitory concentration (MIC), CLSI broth micro-dilution, S. aureus; format: cell-based; settings: Staphylococcus aureus, MRSA / USA200; Table 6; MRSA USA 200; cation adjusted Mueller Hinton Broth + 0.002% Tween-80; 35° C., 22 hours
Method in brief: (§1)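 Colonies grown 20 h at 35° C on Trypticase Soy agar (MRSA) or Luria agar (E. coli) were suspended in cation-adjusted Mueller Hinton broth with 0.002% Tween-80. Suspensions were added at OD600 0.0005 to 10-point twofold compound dilutions, then incubated 22 h at 35° C.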

[2] = system: Escherichia coli ATCC 25922; experiment: Minimum inhibitory concentration (MIC), CLSI broth micro-dilution, E. coli; format: cell-based; settings: Escherichia coli, ATCC25922, 22 h, Table 6, cation adjusted Mueller Hinton Broth + 0.002% Tween-80, 35° C.
Method in brief: as §1

Cc1nc(-c2ccc(C(C)(C)C)cc2)nc(C)c1C(=O)N[C@H](CO)C(=O)N[C@@H](CCN)C(=O)N(C)[C@@H]1C(=O)N[C@@H](C)C(=O)N[C@H](C(=O)NCC#N)Cc2ccc(OCCN)c(c2)-c2cc1ccc2OCCN (racemic) [Compound 467, rac-(8S,11S,14S)-3,18-bis(2-aminoethoxy)-N-(cyanomethyl)-11-methyl-14-[methyl-[rac-(2S)-4-amino-2-[[rac-(2R)-2-[[2-(4-tert-butylphenyl)-4,6-dimethyl-pyrimidine-5-carbonyl]amino]-3-hydroxy-propanoyl]amino]butanoyl]amino]-10,13-dioxo-9,12-diazatricyclo[13.3.1.12,6]icosa-1(18),2(20),3,5,15(19),16-hexaene-8-carboxamide]
MIC [1]: 0.19 µM | MIC [2]: 8 µM

CCC[C@H](NC(=O)c1c(C)nc(-c2ccc(C(C)(C)C)cc2)nc1C)C(=O)N[C@@H](CCN)C(=O)N(C)[C@@H]1C(=O)N[C@@H](C)C(=O)N[C@H](C(=O)NCC#N)Cc2ccc(OCCN)c(c2)-c2cc1ccc2OCCN (racemic) [Compound 469, rac-(8S,11S,14S)-3,18-bis(2-aminoethoxy)-N-(cyanomethyl)-11-methyl-14-[methyl-[rac-(2S)-4-amino-2-[[rac-(2S)-2-[[2-(4-tert-butylphenyl)-4,6-dimethyl-pyrimidine-5-carbonyl]amino]pentanoyl]amino]butanoyl]amino]-10,13-dioxo-9,12-diazatricyclo[13.3.1.12,6]icosa-1(18),2(20),3,5,15(19),16-hexaene-8-carboxamide]
MIC [1]: 0.13 µM | MIC [2]: 6 µM

Cc1nc(-c2ccc(C(C)(C)C)cc2)nc(C)c1C(=O)NCC(=O)N[C@@H](CCN)C(=O)N(C)[C@@H]1C(=O)N[C@@H](C)C(=O)N[C@H](C(=O)NCC#N)Cc2ccc(OCCN)c(c2)-c2cc1ccc2OCCN (racemic) [Compound 470, rac-(8S,11S,14S)-3,18-bis(2-aminoethoxy)-N-(cyanomethyl)-11-methyl-14-[methyl-[rac-(2S)-4-amino-2-[[2-[[2-(4-tert-butylphenyl)-4,6-dimethyl-pyrimidine-5-carbonyl]amino]acetyl]amino]butanoyl]amino]-10,13-dioxo-9,12-diazatricyclo[13.3.1.12,6]icosa-1(18),2(20),3,5,15(19),16-hexaene-8-carboxamide]
MIC [1]: 0.047 µM | MIC [2]: 4 µM

CCCCCCc1ccc(C(=O)N[C@@H](CCN)C(=O)N[C@@H]2C(=O)N[C@@H](C)C(=O)N[C@H](C(=O)NCC#N)Cc3ccc(O)c(c3)-c3cc2ccc3O)c(C)c1 (racemic) [Compound 471, rac-(8S,11S,14S)-N-(cyanomethyl)-3,18-dihydroxy-11-methyl-10,13-dioxo-14-[[rac-(2S)-4-amino-2-[(4-hexyl-2-methyl-benzoyl)amino]butanoyl]amino]-9,12-diazatricyclo[13.3.1.12,6]icosa-1(18),2(20),3,5,15(19),16-hexaene-8-carboxamide]
MIC [1]: 0.04 µM | MIC [2]: 5.1 µM

Cc1nc(-c2ccc(C(C)(C)C)cc2)ncc1C(=O)N[C@@H](CCN)C(=O)N[C@@H]1C(=O)N[C@@H](C)C(=O)N[C@H](C(=O)NCC#N)Cc2ccc(OCCN)c(c2)-c2cc1ccc2OCCN (racemic) [Compound 472, rac-(8S,11S,14S)-3,18-bis(2-aminoethoxy)-N-(cyanomethyl)-11-methyl-10,13-dioxo-14-[[rac-(2S)-4-amino-2-[[2-(4-tert-butylphenyl)-4-methyl-pyrimidine-5-carbonyl]amino]butanoyl]amino]-9,12-diazatricyclo[13.3.1.12,6]icosa-1(18),2(20),3,5,15(19),16-hexaene-8-carboxamide]
MIC [1]: 0.0085 µM | MIC [2]: 0.11 µM

CCCCCCc1ccc(C(=O)N[C@@H](CCN)C(=O)N(CC)[C@@H]2C(=O)N[C@@H](C)C(=O)N[C@H](C(=O)NCC#N)Cc3ccc(O)c(c3)-c3cc2ccc3O)c(C)c1 (racemic) [Compound 473, rac-(8S,11S,14S)-N-(cyanomethyl)-14-[ethyl-[rac-(2S)-4-amino-2-[(4-hexyl-2-methyl-benzoyl)amino]butanoyl]amino]-3,18-dihydroxy-11-methyl-10,13-dioxo-9,12-diazatricyclo[13.3.1.12,6]icosa-1(18),2(20),3,5,15(19),16-hexaene-8-carboxamide]
MIC [1]: 0.31 µM | MIC [2]: 4.9 µM

CCCCCCc1ccc(C(=O)N[C@@H](CCN)C(=O)N(CCN)[C@@H]2C(=O)N[C@@H](C)C(=O)N[C@H](C(=O)NCC#N)Cc3ccc(O)c(c3)-c3cc2ccc3O)c(C)c1 (racemic) [Compound 474, rac-(8S,11S,14S)-14-[2-aminoethyl-[rac-(2S)-4-amino-2-[(4-hexyl-2-methyl-benzoyl)amino]butanoyl]amino]-N-(cyanomethyl)-3,18-dihydroxy-11-methyl-10,13-dioxo-9,12-diazatricyclo[13.3.1.12,6]icosa-1(18),2(20),3,5,15(19),16-hexaene-8-carboxamide]
MIC [1]: 0.11 µM | MIC [2]: 4.8 µM

CCCCCCc1ccc(C(=O)N[C@@H](CCN)C(=O)N(CCO)[C@@H]2C(=O)N[C@@H](C)C(=O)N[C@H](C(=O)NCC#N)Cc3ccc(O)c(c3)-c3cc2ccc3O)c(C)c1 (racemic) [Compound 475, rac-(8S,11S,14S)-N-(cyanomethyl)-3,18-dihydroxy-14-[2-hydroxyethyl-[rac-(2S)-4-amino-2-[(4-hexyl-2-methyl-benzoyl)amino]butanoyl]amino]-11-methyl-10,13-dioxo-9,12-diazatricyclo[13.3.1.12,6]icosa-1(18),2(20),3,5,15(19),16-hexaene-8-carboxamide]
MIC [1]: 0.6 µM | MIC [2]: 4.8 µM

Cc1nc(-c2ccc(C(C)(C)C)cc2)ncc1C(=O)N[C@@H](CCN)C(=O)N(C)[C@@H]1C(=O)NCC(=O)N[C@H](C(=O)NCC#N)Cc2ccc(OCCN)c(c2)-c2cc1ccc2OCCN (racemic) [Compound 476, rac-(8S,14S)-3,18-bis(2-aminoethoxy)-N-(cyanomethyl)-14-[methyl-[rac-(2S)-4-amino-2-[[2-(4-tert-butylphenyl)-4-methyl-pyrimidine-5-carbonyl]amino]butanoyl]amino]-10,13-dioxo-9,12-diazatricyclo[13.3.1.12,6]icosa-1(18),2(20),3,5,15(19),16-hexaene-8-carboxamide]
MIC [1]: 0.025 µM | MIC [2]: 1.1 µM

Cc1nc(-c2ccc(C(C)(C)C)cc2)ncc1C(=O)N[C@@H](CCN)C(=O)N(C)[C@@H]1C(=O)N[C@@H](CO)C(=O)N[C@H](C(=O)NCC#N)Cc2ccc(OCCN)c(c2)-c2cc1ccc2OCCN (racemic) [Compound 477, rac-(8S,11S,14S)-3,18-bis(2-aminoethoxy)-N-(cyanomethyl)-11-(hydroxymethyl)-14-[methyl-[rac-(2S)-4-amino-2-[[2-(4-tert-butylphenyl)-4-methyl-pyrimidine-5-carbonyl]amino]butanoyl]amino]-10,13-dioxo-9,12-diazatricyclo[13.3.1.12,6]icosa-1(18),2(20),3,5,15(19),16-hexaene-8-carboxamide]
MIC [1]: 0.26 µM | MIC [2]: 3.2 µM

CCCCCCCc1ccc(C(=O)N[C@@H](CCN)C(=O)N(C)[C@@H]2C(=O)N[C@@H](C3CC3)C(=O)N[C@H](C(=O)NCC#N)Cc3ccc(OCCN)c(c3)-c3cc2ccc3OCCN)c(C)c1 (racemic) [Compound 478, rac-(8S,11S,14S)-3,18-bis(2-aminoethoxy)-N-(cyanomethyl)-11-cyclopropyl-14-[methyl-[rac-(2S)-4-amino-2-[(4-heptyl-2-methyl-benzoyl)amino]butanoyl]amino]-10,13-dioxo-9,12-diazatricyclo[13.3.1.12,6]icosa-1(18),2(20),3,5,15(19),16-hexaene-8-carboxamide]
MIC [1]: 0.071 µM | MIC [2]: 1.1 µM

CCCCCCCc1ccc(C(=O)N[C@@H](CCN)C(=O)N(C)[C@@H]2C(=O)N[C@@H](CC)C(=O)N[C@H](C(=O)NCC#N)Cc3ccc(OCCN)c(c3)-c3cc2ccc3OCCN)c(C)c1 (racemic) [Compound 479, rac-(8S,11S,14S)-3,18-bis(2-aminoethoxy)-N-(cyanomethyl)-11-ethyl-14-[methyl-[rac-(2S)-4-amino-2-[(4-heptyl-2-methyl-benzoyl)amino]butanoyl]amino]-10,13-dioxo-9,12-diazatricyclo[13.3.1.12,6]icosa-1(18),2(20),3,5,15(19),16-hexaene-8-carboxamide]
MIC [1]: 0.027 µM | MIC [2]: 0.77 µM

CCCCCCCc1ccc(C(=O)N[C@@H](CCN)C(=O)N[C@@H]2C(=O)N[C@@H](CC)C(=O)N[C@H](C(=O)NCC#N)Cc3ccc(OCCN)c(c3)-c3cc2ccc3OCCN)c(C)c1 (racemic) [Compound 480, rac-(8S,11S,14S)-3,18-bis(2-aminoethoxy)-N-(cyanomethyl)-11-ethyl-10,13-dioxo-14-[[rac-(2S)-4-amino-2-[(4-heptyl-2-methyl-benzoyl)amino]butanoyl]amino]-9,12-diazatricyclo[13.3.1.12,6]icosa-1(18),2(20),3,5,15(19),16-hexaene-8-carboxamide]
MIC [1]: 0.061 µM | MIC [2]: 1.6 µM

CCCCCCCCCCCCCC(=O)N1C[C@H](N)CC1C(=O)N(C)[C@@H]1C(=O)N[C@@H](C)C(=O)N[C@H](C(=O)NCC#N)Cc2ccc(OCCN)c(c2)-c2cc1ccc2OCCN (mixture of isomers) [Compound 482, rac-(8S,11S,14S)-3,18-bis(2-aminoethoxy)-14-[(4-amino-1-tetradecanoyl-pyrrolidine-2-carbonyl)-methyl-amino]-N-(cyanomethyl)-11-methyl-10,13-dioxo-9,12-diazatricyclo[13.3.1.12,6]icosa-1(18),2(20),3,5,15(19),16-hexaene-8-carboxamide]
MIC [1]: 0.036 µM | MIC [2]: 0.24 µM
